From US20060063736A1, “Compositions and methods for inhibiting mucin-type O-linked glycosylation” (priority 2004, published 2006)

Columns and labels:
rppGalNAcT-10 = target: T1, rppGalNAcT-10 (Rattus norvegicus, UniProt Q925R7); test: Radiolabel capture assay, rppGalNAcT-10; type: biochemical; details: MUC5AC glycopeptide
T1 construct: plasmids encoding truncated secreted ppGalNAcTs-1 to −5, -7, -10 and -11; made in house; host or cells: COS-7
T1 sequence (Q925R7 32-603 limits assumed): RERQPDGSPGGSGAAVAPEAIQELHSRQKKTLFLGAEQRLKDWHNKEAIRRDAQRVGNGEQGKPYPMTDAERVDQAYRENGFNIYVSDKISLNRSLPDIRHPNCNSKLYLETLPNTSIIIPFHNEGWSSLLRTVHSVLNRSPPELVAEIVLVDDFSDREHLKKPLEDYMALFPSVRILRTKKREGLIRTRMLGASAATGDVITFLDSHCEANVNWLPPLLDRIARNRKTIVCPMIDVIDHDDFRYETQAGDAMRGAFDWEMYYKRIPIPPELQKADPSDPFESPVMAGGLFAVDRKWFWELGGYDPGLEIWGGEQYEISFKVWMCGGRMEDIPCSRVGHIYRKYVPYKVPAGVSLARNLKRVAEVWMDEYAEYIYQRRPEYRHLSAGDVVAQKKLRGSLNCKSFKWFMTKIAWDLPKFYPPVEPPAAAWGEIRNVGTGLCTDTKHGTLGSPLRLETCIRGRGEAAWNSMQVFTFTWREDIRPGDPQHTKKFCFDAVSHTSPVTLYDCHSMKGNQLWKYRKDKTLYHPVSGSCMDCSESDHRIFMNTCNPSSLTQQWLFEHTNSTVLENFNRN
Method: Radiolabel capture assays using ^14C-labeled UDP-GalNAc were performed as previously described with various concentrations of 1-68A or 2-68A in 2% DMSO. Ten Hagen et al. (2001) J. Biol. Chem. 276:17395-17404.
Table 1. IC50 values for 1-68A and 2-68A with ppGalNAcTs-1 to −5, -7, -10, -11, β1-4GalT and α1-3GalT. The requirement of glycopeptides as substrates for ppGalNAcT-7 and -10 precluded the use of the ELLA, as both the substrate and product bind HPA-HRP. Thus, the radiolabel capture assay was employed to measure the IC50 values of 1-68A and 2-68A with ppGalNAcT-7 and -10 using MUC5AC (GTTPSPVPTTSTTSAP; SEQ ID NO:15) glycopeptide, previously shown to be substrate for both enzymes. Ten Hagen et al. (1999) J. Biol. Chem. 274:27867-27874; and Ten Hagen et al. (2001) J. Biol. Chem. 276:17395-17404. IC50 values of 1-68A and 2-68A with ppGalNAcT-5 were performed with α-FLAG purified enzyme and radiolabel capture assay, due to low activity and stability of the crude enzyme. m=murine, r=rattus.

Jurkat cells = test: Con A staining of N-linked glycans on Jurkat cells, flow cytometry; type: cell-based, human; details: 2 d treatment
Method: Jurkat cells were seeded at 250,000 cells/well (determined by Coulter cell counter) in 12-well polystyrene tissue culture plates in 1.0 mL of media and treated with various concentrations of 1-68A or 2-68A from 50 mM dimethyl sulfoxide (DMSO) stock solutions or doxorubicin or campothecin from 1 mM DMSO stock solutions. After 2 d, cells were harvested, washed twice with PBS buffer (PBS, pH 7.4, 0.1% FCS, 0.1% NaN3 w/v) and stained with FITC-HPA (1 μg/mL) or FITC-Con A (5 μg/mL with 1 mM CaCl2) in PBS, pH 7.4 in the dark for 1 h at 4° C. Cells were washed twice with PBS buffer, resuspended in 300 μL of PBS buffer and analyzed by flow cytometry (FacsCaliber, BD Instruments). Annexin-V staining was performed according to the manufacturer's protocols (Invitrogen).
To directly monitor ppGalNAcT activities in cells, Jurkat cells (human T-cell lymphoma), which are known to produce only the Tn-antigen (FIG. 1) as their O-linked glycans, were chosen. Piller et al. (1990) J. Biol. Chem. 265:9264-9271. Changes in Tn-antigen expression on the surface of Jurkat cells were monitored by HPA binding followed by flow cytometry analysis. Con A staining of N-linked glycans was used as a control for non-specific inhibition of protein glycosylation. Baenziger and Fiete (1979) J. Biol. Chem. 254:2400-2407.

HEK 293T cells [1] = test: Jacalin staining of O-linked glycans on HEK 293T cells; type: cell-based, human; details: 100 μM, 24 h
Method: (§1) HEK 293T cells were seeded at 20,000 cells/mL in a 24-well plate (Costar) fit with glass cover slips (Fisher). After 24 h of incubation with 100 μM 1-68A, cells were washed twice with PBS (pH 7.4) and fixed with 4% paraformaldehyde-PBS for 1 h at rt. The cells were washed twice with PBS and incubated with permeabilization solution (0.1% Triton X-100 in 0.1% sodium citrate, freshly prepared) for 2 min on ice. After the cells were washed twice with PBS, 50 μL of TUNEL reaction mixture (1:10 dilution, Boehringer Mannheim) was added. The plate was covered with parafilm to avoid evaporative loss and incubated in a humidified atmosphere for 1 h at 37° C. in the dark. The cells were then rinsed three times with PBS and blocked with 2% BSA in PBST (PBS, 0.05% Tween 20) for 30 min at rt. Following one wash with PBS, the cells were incubated with 100 μL of FITC-jacalin (4 μg/mL in PBST) for 1 h at 37° C. in the dark. […] Slides were analyzed by fluorescence microscopy (Zeiss, using Openlab software).
(§2) To determine if the inhibition of O-linked glycosylation and induction of apoptosis by 1-68A and 2-68A were specific to Jurkat cells, the effects of 1-68A on human embryonic kidney (HEK) 293T cells were evaluated. In this case, O-linked glycans on the cell surface were monitored by staining with jacalin, a lectin that binds core 1 structures (Galβ1,3-GalNAcα1-Ser/Thr). […]

HEK 293T cells [2] = test: TUNEL staining of HEK 293T cells (apoptosis); type: cell-based, human; details: 100 μM, 24 h
Method: as §1, §2

In the case of `O=c1ccn([C@@H]2O[C@H](CON=Cc3ccc(O)c(O)c3O)[C@@H](O)[C@H]2O)c(=O)[nH]1` [1-68A], the IC50 (rppGalNAcT-10) is reported as 7 ± 1 µM, the “effect on Con A staining” value (Jurkat cells) is reported as “no significant effect” and the “effect on jacalin staining” value (HEK 293T cells [1]) is reported as “inhibits”. For the same compound, the “effect on TUNEL staining compared to untreated cells” value (HEK 293T cells [2]) was “increases”.

For `O=C(CON=Cc1ccc(O)c(O)c1O)NC[C@H]1O[C@@H](n2ccc(=O)[nH]c2=O)[C@H](O)[C@@H]1O` [2-68A], the IC50 (rppGalNAcT-10) was 6 ± 1 µM and the “effect on Con A staining” value (Jurkat cells) was “no significant effect”.
